Measured values taken from US20190046446A1, “APO-E MODIFIED LIPID NANOPARTICLES FOR DRUG DELIVERY TO TARGETED TISSUES AND THERAPEUTIC METHODS” (Eriochem USA, LLC, priority 2016, published 2019).
“And” between values parts separate entries of the source, which are not always exact repeats. Identical values can stand only once. Like-named read-outs stand apart in the source and are kept apart here.

How the values were obtained:
[1] = Pharmacokinetics of Docetaxel in plasma of rabbits; format: in vivo, New Zealand rabbits; conditions: iv, 2.5 mg/kg DCX; for half-life: New Zealand, rabbit, 2.5 mg/kg
Method: Changes in plasma drug concentration reflect changes in drug concentrations at the receptor site, as well as in other tissues.
The formulations were administered intravenously at doses equivalent to 2.5 mg/kg of DCX in each. […] Blood samples were taken at 0.5, 2, 8, and 24 hours from each animal in Groups A and C, and at 1, 4, 12, and 32 hours for each animal in Groups B and D. Then, the samples were pre-treated for analysis—the proteins were precipitated with acetonitrile and then extracted with a solid phase (SPE), evaporated, and resuspended for analysis. […] Any adjustment of the experimental data was performed by weighted nonlinear regression of at least squares using a bi-exponential descriptive model.
For this study, kd and kel were interpreted as the first order apparent distribution and elimination constants, respectively, and C1 and C2 were the coefficients of the adjustment model.
From the estimated values of C1, kd, C2, and kel, the following pharmacokinetic parameters were calculated, as shown in Table 10 below.
Clearance (CI) refers to the volume of blood that has completely cleared of the drug/unit time when it passes through a clearing organ.

[2] = In vitro drug release by dialysis against human plasma; format: in vitro ADME; conditions: dialysis against 10% human plasma, 37° C., up to 72 hours
Method: Drug release kinetics were evaluated in vitro by comparing solutions containing:
The respective solution samples were placed in 12 KDa dialysis bags and dialyzed against a 10% V/V solution of human plasma for 72 hours at 37° C. in an orbital shaker with constant agitation at 60 rpm. Assays were then performed in triplicate, with samples taken from each solution at 0, 1, 2, 3, 6, 9, 24, 48, and 72 hours after dialysis initiation. […] The recovered organic phase was dried in a rotary evaporator, and the obtained dry material was resuspended in acetonitrile for further HPLC analysis.

New Zealand rabbits = experiment: Hepatic toxicity (GGT and GOT determination); format: in vivo; conditions: iv, DCX 2.5 mg/kg or equivalent, 24 hours after inoculation
Method: The experiment was carried out using New Zealand rabbits kept in facilities under controlled environmental conditions (temperature of 22° C.+3° C.; 12-hour light/dark cycle) and with free access to food and water. Acclimatization was performed for a minimum of 10 days prior to the start of the experiment. Each animal weighted approximately 2.8 kg and was distributed into a group of 5 animals each.
Formulations were administered intravenously (in marginal ear vein) into rabbits that had previously been intravenously injected with a combination of Ketamine-Xylazine-Acepromazine. Amounts of Gamma glutamil transaminase (GGT) and glutamic-oxaloacetic transaminase (GOT) were determined in plasma of the rabbits 24 hours after inoculation with the formulation. The results of each sample were statistically analyzed with ANOVA and Duncan Test using SPSS 11.0.

[3] = tested on: VERO (monkey kidney epithelial cells); experiment: In vitro cytotoxicity assay (MTS), VERO; format: cell-based
[4] = tested on: A549 (lung cancer epithelial cells); experiment: In vitro cytotoxicity assay (MTS), A549; format: cell-based, human
Method: 50 μL of the cell suspensions were seeded in 96-well plates in duplicate with Dulbecco's basal medium plus 10% fetal bovine serum supplemented with 10% fetal bovine serum (FBS) for PC-3, and with DMEM/Ham's F12 medium containing 10% FBS, 1% 1-glutamine for A549 cell line. Both were maintained in culture for 24 hours. The cells were then treated with serial diluted concentrations of DCX starting from 100 nM and incubated for 48 hours. At the end of incubation, 20 μL/well of MTS/PMs solution (2 mL of MTS with 100 μL of PMS solution) were added. Then, plates were incubated at 37° C., 5% CO2 for 4 hours. […] The result allowed for conditions for evaluating the growth inhibition of the Nano+DCX and Nano+DCX+ApoE3 to be defined.
Absorbance values obtained from the in vitro cytotoxicity assay of DCX, Nano+DCX, and Nano+DCX+ApoE3 samples were plotted based on the DCX concentration employed, using OriginPro 8 software (ORIGINLAB Corporation, USA). The IC50 (nM) of each of the samples was determined at 50% of the maximum absorbance value obtained, corresponding to the value obtained for the growth control. The anti-proliferation effect shown on different cells with DCX, Nano+DCX, and Nano+DCX+ApoE3 decreased cell proliferation.

human plasma proteins = conditions: cited from earlier work
[5] = in vivo; cited from earlier work

For CC(=O)O[C@@]12CO[C@@H]1C[C@H](O)[C@@]1(C)C(=O)[C@H](O)C3=C(C)[C@@H](OC(=O)[C@H](O)[C@@H](NC(=O)OC(C)(C)C)c4ccccc4)C[C@@](O)([C@@H](OC(=O)c4ccccc4)[C@H]21)C3(C)C [TAXOTERE, Docetaxel], the half-life ([1]; read-out: t1/2e1: Elimination half-life (converted)) was 19.7 h, the half-life ([1]; read-out: t1/2d: Distribution half-life (converted)) was 0.54 h and the “ABC0-∞: Area under the curve from time zero to infinity” value [1] was 1.152 µg·h/mL. The “ABCex: Percentage of area under the curve extrapolated to infinity” value [1] was 26.0%, the “ABCtz-∞: Area under the curve from the last sampling time to infinity” value [1] was 0.299 µg·h/mL and the “C1: Coefficient of the first exponential term” value [1] was 295.1 ng/mL. For the same compound, the “C2: Coefficient of the second exponential term” value [1] was 32.5 ng/mL, the “Cz: Coefficient of last exponential term” value [1] was 10.52 ng/mL and the “kd: first order apparent distribution constant” value [1] was 0.000356 s⁻¹. For the same compound, the “ke1: first order apparent elimination constant” value [1] was 0.035 h⁻¹, the “Docetaxel release, comparison between solutions” value [2] was “released more decetaxel than the lipid nanoparticles” and the “GGT concentration in plasma” value (New Zealand rabbits) was “No significant differences”. The “GOT concentration in plasma” value (New Zealand rabbits) was “O significant differences”, the IC50 ([3]; Normal Serum, 48 hours, listed as DCX, read-out: IC50 in VERO, individual tests) was 0.145 µM and 0.14 µM and 0.149 µM and the IC50 ([3]; Primates, Vero, 48 h, Normal Serum, 48 hours, read-out: IC50 in VERO, individual tests) was 0.137 µM. The IC50 ([3]; Primates, Vero, 48 h, Serum Free of Lipoprotein, 48 hours, read-out: IC50 in VERO, individual tests) was 0.138 µM, the IC50 ([3]; Primates, Vero, LP-FREE SERUM, Table 18, read-out: IC50 Normal Cell (Vero)) was 0.129 µM and the IC50 ([3]; Primates, Vero, NORMAL SERUM, Table 18, read-out: IC50 Normal Cell (Vero)) was 0.143 µM. The IC50 ([3]; Primates, Vero, Normal Serum, average of tests, read-out: IC50 in VERO) was 0.143 ± 0.0029 µM, the IC50 ([3]; Primates, Vero, Serum Free of Lipoprotein, average of tests, read-out: IC50 in VERO) was 0.129 ± 0.00806 µM and the IC50 ([3]; Serum Free of Lipoprotein, 48 hours, listed as DCX, read-out: IC50 in VERO, individual tests) was 106 nM (2×) and 140 nM and 153 nM and 152 nM and 111 nM. It also gave an IC50 ([4]; Homo sapiens, A549, 48 h, Normal Serum, 48 hours, read-out: IC50 in A549, individual tests) of 0.00875 µM, an IC50 ([4]; Homo sapiens, A549, 48 h, Serum Free of Lipoprotein, 48 hours, read-out: IC50 in A549, individual tests) of 0.0255 µM and an IC50 ([4]; Homo sapiens, A549, LP-FREE SERUM, Table 18, read-out: IC50 A549) of 0.034 µM. It also gave an IC50 ([4]; Homo sapiens, A549, NORMAL SERUM, Table 18, read-out: IC50 A549) of 0.009 µM, an IC50 ([4]; Homo sapiens, A549, Normal Serum, average of tests, read-out: IC50 in A549) of 0.0087 ± 0.0007 µM and an IC50 ([4]; Homo sapiens, A549, Serum Free of Lipoprotein, average of tests, read-out: IC50 in A549) of 0.0338 ± 0.0032 µM. The IC50 ([4]; Homo sapiens, A549, lung cancer cell cultures, without lipoproteins, read-out: IC50) was 0.034 µM, the “Si A549” value ([4]; LP-FREE SERUM, SI=IC50 (Vero)/IC50 (A549)) was 4 and the “SI A549” value ([4]; NORMAL SERUM, SI=IC50 (Vero)/IC50 (A549), listed as DCX) was 16. The IC50 ([4]; Normal Serum, 48 hours, listed as DCX, read-out: IC50 in A549, individual tests) was 0.00665 µM and 0.0096 µM and 0.0099 µM, the IC50 ([4]; Serum Free of Lipoprotein, 48 hours, listed as DCX, read-out: IC50 in A549, individual tests) was 0.033 µM and 0.0375 µM and 0.0455 µM and 0.0365 µM and 0.025 µM and the “times more toxic in the presence of lipoproteins” value ([4]; lung cancer cell cultures) was 3.8 times. For the same compound, the “signs after day 12” value (rabbits; rabbit, in vivo, 3.2 mg/kg) was “anorexia and adipsia”, the “dead animals after the first cycle of inoculation” value (rabbits; rabbits, 3.2 mg/kg Docetaxel) was “dead animals were found” and the “dead animals after the second cycle of inoculation” value (rabbits; rabbits, 3.2 mg/kg Docetaxel) was “dead animals were found”. The mortality / lethality (rabbits; rabbits, 3.2 mg/kg Docetaxel (4 ml/kg), three cycles) was 80%, the “free Docetaxel (fu)” value (human plasma proteins; at 1.24 μM (1 μg/ml) plasma serum) was 0.082 µM and the “bound to plasma proteins” value (human plasma proteins; ultrafiltration at 37° C. and pH 7.4) was greater than 98%. The “incidence of reactions of unpredictable acute toxicity” value [5] was 5-60%.
